From US11555055B2, “Peptide inhibitors of insulin-degrading enzyme” (The Regents of the University of California, priority 2017, dated 2023) come the findings set out here.

SMILES strings stand for the structures. Where a SMILES comes first, the peptide text is derived from it. Bridges are numbered along the chain shown (N, C = ends).

Assay [1] relates to primary murine skin fibroblasts. The experiment in a line: Western blotting of cell-associated mature alpha-1 type I collagen. The settings on record: P12-3A 100 μM. In kind it is cell-based, mouse. As for the experimental part:
FIG. 4A-F. Effects of P12-3A on cultured skin cells. A, Insulin concentrations as a function of time in logarithmically growing primary murine skin fibroblasts in the absence or presence of P12-3A (100 μM). […] Data are mean±SEM of 4 independent replications. *P<0.05, **P<0.01. B, Proliferation of cells in the absence or presence of P12-3A (100 μM). […] C,D,E, P12-3A (100 μM) potentiates insulin-induced collagen production in skin fibroblasts. Collagen production was assessed by COL1A1 mRNA levels (C), levels of hydroxyproline secreted into the medium (D), and cell-associated mature alpha-1 type I collagen levels detected by Western blotting (E). […] Migration of HaCaT cells 48 h after induction of a scratch wound in the presence of the indicated quantities of insulin and/or P12-3A (100 μM). […]
Insulin promotes wound healing and overall skin health by affecting a number of processes, including cell proliferation (2,3), cell migration (5,6), and the production and secretion of ECM components, particularly type I collagen (7-13). We therefore assessed the ability of P12-3A to influence these processes in cultured skin fibroblasts and keratinocytes. To that end, primary mouse skin fibroblasts were grown for 4 d in multiple concentrations of insulin in the presence or absence of P12-3A, and insulin concentration over time was monitored by ELISA. […]
(In general: In western blotting, separated proteins are transferred to a membrane and probed.)

A further assay has as its target T1, IDE (Homo sapiens, UniProt P14735).
T1 construct: made in house; host or cells: bacteria
T1 sequence (P14735 1-1019): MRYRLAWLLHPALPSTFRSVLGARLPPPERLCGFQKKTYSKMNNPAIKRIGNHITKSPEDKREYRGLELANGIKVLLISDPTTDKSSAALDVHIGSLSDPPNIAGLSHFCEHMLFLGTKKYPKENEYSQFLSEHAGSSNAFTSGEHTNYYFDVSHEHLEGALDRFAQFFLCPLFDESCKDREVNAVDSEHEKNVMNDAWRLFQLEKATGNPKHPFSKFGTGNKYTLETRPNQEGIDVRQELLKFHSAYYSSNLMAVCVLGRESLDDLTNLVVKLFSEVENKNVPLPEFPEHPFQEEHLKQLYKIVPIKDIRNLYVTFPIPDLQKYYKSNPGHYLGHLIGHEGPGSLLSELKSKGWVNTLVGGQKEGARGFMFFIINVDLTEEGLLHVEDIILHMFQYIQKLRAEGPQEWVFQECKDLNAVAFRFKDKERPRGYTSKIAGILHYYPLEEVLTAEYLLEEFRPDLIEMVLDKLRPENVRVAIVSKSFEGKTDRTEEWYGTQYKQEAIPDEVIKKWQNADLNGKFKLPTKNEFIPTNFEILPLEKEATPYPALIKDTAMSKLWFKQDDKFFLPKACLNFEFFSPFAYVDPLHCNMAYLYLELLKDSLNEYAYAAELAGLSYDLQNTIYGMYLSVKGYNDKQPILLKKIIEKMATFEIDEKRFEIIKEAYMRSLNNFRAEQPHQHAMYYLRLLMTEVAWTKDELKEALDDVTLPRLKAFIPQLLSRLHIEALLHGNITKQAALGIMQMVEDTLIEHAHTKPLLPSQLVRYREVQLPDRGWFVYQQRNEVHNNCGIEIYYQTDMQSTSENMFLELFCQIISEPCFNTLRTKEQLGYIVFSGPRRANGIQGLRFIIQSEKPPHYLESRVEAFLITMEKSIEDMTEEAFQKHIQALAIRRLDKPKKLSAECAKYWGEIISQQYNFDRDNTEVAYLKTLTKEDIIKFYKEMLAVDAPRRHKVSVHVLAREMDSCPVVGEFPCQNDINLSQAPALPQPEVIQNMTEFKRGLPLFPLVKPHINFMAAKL
Put plainly: IDE activity assay, FAβB (amyloid β-protein) degradation by fluorescence polarization. In kind it is biochemical. The settings on record: P12-3A 100 μM. As to the method:
Degradation Assays—IDE activity was quantified by monitoring the degradation of (7-methoxycoumarin-4-yl)acetic acid-[…](2,4-dinitrophenyl) (FRET1, 5 μM) (49,55), fluoresceinated and biotinylated amyloid β-protein (FAβB; 500 nM) or recombinant human insulin (50 nM) in PBS supplemented with 0.05% BSA. FRET1 degradation was measured by changes in fluorescence (λex=340 nm, λem=420 nm); FAβB degradation was monitored by fluorescence polarization (λex=488 nm, λem=525 nm), as described (56); and insulin degradation was quantified by ELISA. In vitro activity assays incorporated recombinant human IDE (1 nM) purified from bacteria (35). For quantitation of insulin degradation in primary murine skin fibroblasts, cells (1×10^5/well) were plated in 96-well plates and maintained in DMEM supplemented with 10% fetal bovine serum (FBS), 2 mM glutamine, penicillin and streptomycin. After addition of insulin (10 nM or 100 nM), samples of conditioned medium were removed daily and quickly frozen, then insulin levels were quantified in parallel by ELISA according to manufacturer's recommendations (Crystal Chem, Downers Grove, Ill., USA). […]
(Fluorescence polarisation rises when a labelled molecule tumbles more slowly, as on binding a larger partner.)

With `CC(C)C[C@H](NC(=O)[C@H](CO)NC(=O)[C@@H](N)CCC(N)=O)C(=O)N1CCC[C@H]1C(=O)N[C@@H](Cc1c[nH]c2ccccc12)C(=O)N[C@H]1CSSC[C@@H](C(=O)N[C@H](C(=O)N[C@H](C(N)=O)[C@@H](C)O)C(C)C)NC(=O)[C@H](Cc2c[nH]cn2)NC(=O)[C@@H]2CCCN2C(=O)[C@H](Cc2ccc(O)cc2)NC1=O` [Peptide P12-3A] (H-QSLPWCYPHCVT-NH2; disulfide 6-10 (inferred)), the “mature, cell-associated collagen levels” value in assay [1] is recorded as “increased”. Further, the “inhibition of IDE in selectivity panel” value against IDE is “significant inhibition”.
